Measurements taken from patent US10238630B2, “Use of eribulin and poly (ADP ribose) polymerase (PARP) inhibitors as combination therapy for the treatment of cancer” (Eisai R&D Management Co., Ltd., priority 2014, dated 2019).
“Also recorded” adds a separate entry of the source. Where a name gives a salt, the structure may show the parent alone.

Assays:
[1] = test system: MDA-MB-468 human breast cancer xenografts; test: Antitumor activity against subcutaneous MDA-MB-468 human breast cancer xenografts in athymic mice; type: in vivo
Protocol: MDA-MB-468 human triple negative breast cancer cells are wild type for BRCA1 and 2 and PTEN null. Cells were maintained in monolayer cultures in RPMI-1640 growth medium supplemented with 10% fetal bovine serum at 37° C. in a 5% CO2 humidified incubator. On the day of inoculation, cells were harvested by trypsinization, washed, and resuspended in ice-cold PBS. Female immunodeficient athymic mice were inoculated subcutaneously near the right axillary area with MDA-MB-468 cells (5×10^6) in a 1:1 ratio (50 μL each) with matrigel in a volume of 0.1 mL in phosphate buffered saline using a 26-gauge needle. A total of 60 mice, approximately 8 weeks old were implanted with MDA-MB-468 cells.
E7449 and E7389 were evaluated as single agents and in combination for antitumor activity against MDA-MB-468 human breast cancer xenografts in athymic mice. The experiment consisted of a vehicle control group, an E7449 single agent group, two groups treated with single agent E7389 and 2 combination drug-treated groups (Table 4). Sixty mice were inoculated with MDA-MB-468 cells. On day 7 following implantation, tumor volumes were measured and mice were randomized into the 6 treatment groups based on tumor volume (average of 180 mm^3). Following randomization drug treatment was initiated. Each group was composed of 6 mice for a total of 36 mice on the first day of treatment. E7449 was formulated in 0.5% methyl cellulose and orally administered daily at 100 mg/kg based on body weight at 0.1 mL per 10 g. E7449 was administered once daily for 28 days (starting on Day 7) as a single agent or in combination. E7389 was formulated in saline and was intravenously administered once every 4 days, 3 times (Day 7, 11, and 15) at a dosage of 0.1 or 0.4 mg/kg as single agent or in combination with E7449, based on body weight at 0.1 mL per 10 g. The control group was treated with oral vehicle (0.5% methyl cellulose in water) daily and intravenous vehicle (saline) once every 4 days, 3 times. E7449 or vehicle was administered first and when dosing of all animals was complete, E7389 was administered to animals receiving the combination.
Drug treatment was initiated 7 days post tumor implantation and continued for 28 days. Animals whose tumor measurement reached […] at the longest axis or whose tumor became ulcerated were euthanized prior to study termination. The study was terminated on Day 52. Statistical analysis was performed on Days 35 and 52.
Statistical analysis of the vehicle group (A) versus the drug-treated groups (B, C, D, E, and F) was performed by a one way analysis of variance (ANOVA) for tumor volume followed by Dunnett's multiple comparisons test. The analysis was performed at vehicle endpoint on Day 35 of the study. […]

BR1282 = test: Antitumor effect in patient-derived xenograft (PDx) BR1282 of triple negative breast cancer in athymic mice; type: in vivo, human

| SMILES | tumor re-growth following treatment ([1]; E7389 0.1 mg/kg IV Q4Dx3, single agent) | tumor re-growth following treatment ([1]; E7389 0.4 mg/kg IV Q4Dx3, single agent, up to Day 52) | antitumor effect (tumor volume) ([1]; E7389 0.1 and 0.4 mg/kg IV Q4Dx3, single agent) | antitumor effect (tumor growth) (BR1282; E7389 0.3 mg/kg, single agent) | antitumor effect (tumor growth) (BR1282; E7389 single agent, 0.1 mg/kg (dose as read from the sentence)) | antitumor effect (tumor volume) ([1]; E7449 100 mg/kg PO QDx28, single agent, 100 mg/kg) | antitumor effect (tumor growth) (BR1282; E7449 single agent) |
| --- | --- | --- | --- | --- | --- | --- | --- |
| C=C1C[C@@H]2CC[C@@]34C[C@H]5OC6[C@@H](O[C@H]7CC[C@H](CC(=O)C[C@@H]8[C@@H](OC)[C@@H](C[C@H](O)CN)O[C@H]8C[C@H]8O[C@@H](CC[C@@H]1O2)C[C@@H](C)C8=C)O[C@@H]7[C@@H]6O3)[C@H]5O4 [E7389, 11, 15:18,21:24,28-triepoxy-7,9-ethano-12,15-methano-9H,15H-furo[3,2-i]furo[2′,3′:5,6]pyrano[4,3-b] [1,4]dioxacyclopentacosin-5(4H)-one, 2-[(2S)-3-amino-2-hydroxypropyl]hexacosahydro-3-methoxy-26-methyl-20,27-bis(methylene)-, (2R,3R,3aS,7R,8aS,9S,10aR,11S,12R,13aR,13bS,15S,18S,21S,24S,26R,28R,29aS)-methanesulfonate (salt)] | began re-growing within days of final E7389 dose | became tumor-free with no palpable tumors observed up to the date of study termination | Tumor regression | inhibited tumor growth to a similar degree | had no impact on the tumor growth |  |  |
| O=c1[nH]nc2c3c(cccc13)N=C(CN1Cc3ccccc3C1)N2 [E7449] |  |  |  |  |  | did not significantly inhibit tumor growth; also recorded: No antitumor activity | had no impact on the tumor growth |
